# Experimental data reported in PubChem BioAssay (NCI).
#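 Where inhibition never reached the appropriate level, the endpoint shown equals the highest concentration tested. Otherwise, values were interpolated linearly from a five-concentration, 48-hour dose response in 96-well plates. GI50 is the concentration that inhibits growth by half. Definition used: TGI = concentration required for complete inhibition of growth.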
# Legend:
# Test in all cases: growth of human tumour cells (NCI), 48 h
# SNB-19 CNS = test system: SNB-19 CNS
# NCI-H226 lung = test system: NCI-H226 lung
# M14 melanoma = test system: M14 melanoma
# HS 578T breast = test system: HS 578T breast
# RPMI-8226 leukemia = test system: RPMI-8226 leukemia
# CAKI-1 renal = test system: CAKI-1 renal
# ACHN renal = test system: ACHN renal
# SF-268 CNS = test system: SF-268 CNS
# A498 renal = test system: A498 renal
# COLO 205 colon = test system: COLO 205 colon
# UACC-257 melanoma = test system: UACC-257 melanoma
# CCRF-CEM leukemia = test system: CCRF-CEM leukemia
# HCT-116 colon = test system: HCT-116 colon
# RXF 393 renal = test system: RXF 393 renal
# SN12C renal = test system: SN12C renal
# PC-3 prostate = test system: PC-3 prostate
# KM12 colon = test system: KM12 colon
# SK-OV-3 ovarian = test system: SK-OV-3 ovarian
# DU-145 prostate = test system: DU-145 prostate
# TK-10 renal = test system: TK-10 renal
# HOP-62 NSCLC = test system: HOP-62 NSCLC
# T-47D breast = test system: T-47D breast
# MDA-MB-435 = test system: MDA-MB-435
# MDA-N = test system: MDA-N
# NCI/ADR-RES ovarian = test system: NCI/ADR-RES ovarian
# SNB-75 CNS = test system: SNB-75 CNS
# OVCAR-3 ovarian = test system: OVCAR-3 ovarian
# SW-620 colon = test system: SW-620 colon
# UACC-62 melanoma = test system: UACC-62 melanoma
# NCI-H23 lung = test system: NCI-H23 lung
# SF-295 CNS = test system: SF-295 CNS
# SK-MEL-28 melanoma = test system: SK-MEL-28 melanoma
# U251 CNS = test system: U251 CNS
# EKVX NSCLC = test system: EKVX NSCLC
# MCF7 breast = test system: MCF7 breast
# BT-549 breast = test system: BT-549 breast
# MOLT-4 leukemia = test system: MOLT-4 leukemia
# OVCAR-8 ovarian = test system: OVCAR-8 ovarian
# MDA-MB-231 breast = test system: MDA-MB-231 breast
# IGROV1 ovarian = test system: IGROV1 ovarian
# HT29 colon = test system: HT29 colon
# HCC-2998 colon = test system: HCC-2998 colon
# UO-31 renal = test system: UO-31 renal
# HOP-92 NSCLC = test system: HOP-92 NSCLC
# MALME-3M melanoma = test system: MALME-3M melanoma
# NCI-H522 lung = test system: NCI-H522 lung
# SK-MEL-2 melanoma = test system: SK-MEL-2 melanoma
# A549 NSCLC = test system: A549 NSCLC
# OVCAR-4 ovarian = test system: OVCAR-4 ovarian
# OVCAR-5 ovarian = test system: OVCAR-5 ovarian
# SK-MEL-5 melanoma = test system: SK-MEL-5 melanoma
# HCT-15 colon = test system: HCT-15 colon
# NCI-H460 lung = test system: NCI-H460 lung
# SF-539 CNS = test system: SF-539 CNS
# K-562 leukemia = test system: K-562 leukemia
# LOX IMVI melanoma = test system: LOX IMVI melanoma
# 786-0 renal = test system: 786-0 renal
compound,measurement,setting,value
C[C@H]1CCC/C=C/[C@@H]2C[C@H](O)C[C@H]2[C@H](O)[C@@H](S(=O)CCN)CC(=O)O1 (stereo not given in full),GI50,SNB-19 CNS,0.21 µM
same,TGI,SNB-19 CNS,> 100 µM
same,GI50,NCI-H226 lung,0.041 µM
same,TGI,NCI-H226 lung,0.199 µM
same,GI50,M14 melanoma,0.0294 µM
same,GI50,HS 578T breast,0.207 µM
same,TGI,HS 578T breast,> 100 µM
same,GI50,RPMI-8226 leukemia,0.294 µM
same,TGI,RPMI-8226 leukemia,2.71 µM
same,GI50,CAKI-1 renal,0.0979 µM
same,GI50,ACHN renal,0.121 µM
same,TGI,ACHN renal,2.84 µM
same,TGI,SF-268 CNS,> 100 µM
same,GI50,A498 renal,0.0322 µM
same,TGI,A498 renal,0.126 µM
same,GI50,COLO 205 colon,< 0.0156 µM
same,TGI,COLO 205 colon,0.0436 µM
same,GI50,UACC-257 melanoma,< 0.0234 µM
same,TGI,UACC-257 melanoma,> 100 µM
same,GI50,CCRF-CEM leukemia,0.0729 µM
same,GI50,HCT-116 colon,0.0569 µM
same,TGI,HCT-116 colon,0.169 µM
same,GI50,RXF 393 renal,< 0.0141 µM
same,TGI,RXF 393 renal,0.0456 µM
same,GI50,SN12C renal,0.085 µM
same,TGI,SN12C renal,0.472 µM
same,GI50,PC-3 prostate,0.0442 µM
same,GI50,KM12 colon,< 0.0139 µM
same,GI50,SK-OV-3 ovarian,0.0245 µM
same,GI50,DU-145 prostate,0.163 µM
same,TGI,DU-145 prostate,0.552 µM
same,GI50,TK-10 renal,0.0851 µM
same,TGI,TK-10 renal,4.19 µM
same,GI50,HOP-62 NSCLC,0.13 µM
same,TGI,HOP-62 NSCLC,> 58.9 µM
same,GI50,T-47D breast,0.116 µM
same,TGI,T-47D breast,0.544 µM
same,GI50,MDA-MB-435,0.0513 µM
same,TGI,MDA-MB-435,> 92.8 µM
same,GI50,MDA-N,0.0505 µM
same,TGI,MDA-N,5.5 µM
same,GI50,NCI/ADR-RES ovarian,0.0196 µM
same,TGI,NCI/ADR-RES ovarian,0.137 µM
same,GI50,SNB-75 CNS,< 0.0231 µM
same,TGI,SNB-75 CNS,> 25.1 µM
same,GI50,OVCAR-3 ovarian,0.0495 µM
same,GI50,SW-620 colon,0.0576 µM
same,GI50,UACC-62 melanoma,0.0197 µM
same,TGI,UACC-62 melanoma,> 82 µM
same,GI50,NCI-H23 lung,0.044 µM
same,TGI,NCI-H23 lung,1.74 µM
same,GI50,SF-295 CNS,0.117 µM
same,TGI,SF-295 CNS,> 100 µM
same,GI50,SK-MEL-28 melanoma,0.0475 µM
same,TGI,SK-MEL-28 melanoma,> 100 µM
same,GI50,U251 CNS,0.0538 µM
same,TGI,U251 CNS,> 100 µM
same,GI50,EKVX NSCLC,0.0891 µM
same,TGI,EKVX NSCLC,> 100 µM
same,GI50,MCF7 breast,0.0316 µM
same,GI50,BT-549 breast,0.0377 µM
same,TGI,BT-549 breast,> 100 µM
same,GI50,MOLT-4 leukemia,0.0947 µM
same,GI50,OVCAR-8 ovarian,< 0.0181 µM
same,TGI,OVCAR-8 ovarian,0.154 µM
same,GI50,MDA-MB-231 breast,0.0234 µM
same,TGI,MDA-MB-231 breast,0.0613 µM
same,GI50,IGROV1 ovarian,0.166 µM
same,GI50,HT29 colon,< 0.0158 µM
same,TGI,HT29 colon,0.0378 µM
same,GI50,HCC-2998 colon,0.252 µM
same,TGI,HCC-2998 colon,22.3 µM
same,GI50,UO-31 renal,0.0269 µM
same,TGI,UO-31 renal,0.446 µM
same,GI50,HOP-92 NSCLC,0.274 µM
same,TGI,HOP-92 NSCLC,> 100 µM
same,GI50,MALME-3M melanoma,< 0.0138 µM
same,TGI,MALME-3M melanoma,0.382 µM
same,GI50,NCI-H522 lung,0.0986 µM
same,TGI,NCI-H522 lung,0.926 µM
same,GI50,SK-MEL-2 melanoma,0.111 µM
same,GI50,A549 NSCLC,0.0402 µM
same,TGI,A549 NSCLC,> 100 µM
same,GI50,OVCAR-4 ovarian,< 0.0273 µM
same,GI50,OVCAR-5 ovarian,0.0479 µM
same,GI50,SK-MEL-5 melanoma,0.015 µM
same,TGI,SK-MEL-5 melanoma,0.0295 µM
same,GI50,HCT-15 colon,0.28 µM
same,TGI,HCT-15 colon,10.8 µM
same,GI50,NCI-H460 lung,0.0119 µM
same,TGI,NCI-H460 lung,0.0743 µM
same,GI50,SF-539 CNS,< 0.0176 µM
same,GI50,K-562 leukemia,0.132 µM
same,TGI,K-562 leukemia,> 100 µM
same,GI50,LOX IMVI melanoma,0.031 µM
same,TGI,LOX IMVI melanoma,0.101 µM
CCOC(=O)c1nnsc1NC(=O)Nc1ccc(Cl)cc1,TGI,SNB-19 CNS,> 100 µM
same,TGI,NCI-H226 lung,> 100 µM
same,TGI,M14 melanoma,> 100 µM
same,TGI,HS 578T breast,> 100 µM
same,TGI,RPMI-8226 leukemia,> 100 µM
same,TGI,ACHN renal,> 100 µM
same,TGI,SF-268 CNS,> 100 µM
same,TGI,COLO 205 colon,> 100 µM
same,TGI,UACC-257 melanoma,> 100 µM
same,TGI,CCRF-CEM leukemia,> 100 µM
same,TGI,HCT-116 colon,70.5 µM
same,TGI,RXF 393 renal,> 100 µM
same,TGI,SN12C renal,> 100 µM
same,TGI,PC-3 prostate,> 100 µM
same,TGI,KM12 colon,> 100 µM
same,TGI,DU-145 prostate,> 100 µM
same,TGI,TK-10 renal,> 100 µM
same,TGI,HOP-62 NSCLC,> 100 µM
same,TGI,T-47D breast,> 100 µM
same,TGI,MDA-MB-435,> 100 µM
same,TGI,786-0 renal,42.4 µM
same,TGI,MDA-N,> 100 µM
same,TGI,NCI/ADR-RES ovarian,72.5 µM
same,TGI,SNB-75 CNS,88 µM
same,TGI,OVCAR-3 ovarian,> 100 µM
same,TGI,SW-620 colon,> 100 µM
same,TGI,UACC-62 melanoma,> 100 µM
same,TGI,NCI-H23 lung,> 100 µM
same,TGI,SK-MEL-28 melanoma,> 100 µM
same,TGI,U251 CNS,> 100 µM
same,TGI,EKVX NSCLC,> 100 µM
same,TGI,BT-549 breast,> 100 µM
same,TGI,MOLT-4 leukemia,> 100 µM
same,TGI,OVCAR-8 ovarian,41.2 µM
same,TGI,MDA-MB-231 breast,52.7 µM
same,TGI,IGROV1 ovarian,> 100 µM
same,TGI,HT29 colon,> 100 µM
same,TGI,HCC-2998 colon,> 100 µM
same,TGI,UO-31 renal,> 100 µM
same,TGI,MALME-3M melanoma,> 100 µM
same,TGI,NCI-H522 lung,50.1 µM
same,TGI,SK-MEL-2 melanoma,> 100 µM
same,TGI,A549 NSCLC,> 100 µM
same,TGI,OVCAR-4 ovarian,51.2 µM
same,TGI,OVCAR-5 ovarian,> 100 µM
same,TGI,SK-MEL-5 melanoma,> 100 µM
same,TGI,HCT-15 colon,> 100 µM
same,TGI,NCI-H460 lung,32.1 µM
same,TGI,K-562 leukemia,> 100 µM
COc1cc(C)cc2c1C(=O)C(Br)=CC2=O,TGI,SNB-19 CNS,30.2 µM
same,TGI,NCI-H226 lung,32.3 µM
same,TGI,M14 melanoma,14.1 µM
same,TGI,HS 578T breast,71.5 µM
same,TGI,CAKI-1 renal,3.18 µM
same,TGI,ACHN renal,6.96 µM
same,TGI,SF-268 CNS,35.8 µM
same,TGI,A498 renal,34.5 µM
same,TGI,COLO 205 colon,3.23 µM
same,TGI,UACC-257 melanoma,26.7 µM
same,TGI,CCRF-CEM leukemia,3.92 µM
same,TGI,HCT-116 colon,18.6 µM
same,TGI,RXF 393 renal,8.36 µM
same,TGI,SN12C renal,30.9 µM
same,TGI,PC-3 prostate,31.3 µM
same,TGI,KM12 colon,28.8 µM
same,TGI,SK-OV-3 ovarian,33.8 µM
same,TGI,DU-145 prostate,32.4 µM
same,TGI,TK-10 renal,5.9 µM
same,TGI,HOP-62 NSCLC,32.5 µM
same,TGI,T-47D breast,4.75 µM
same,TGI,MDA-MB-435,5.68 µM
same,TGI,786-0 renal,8.16 µM
same,TGI,MDA-N,8.16 µM
same,TGI,NCI/ADR-RES ovarian,74.9 µM
same,TGI,SNB-75 CNS,31.7 µM
same,TGI,OVCAR-3 ovarian,11.7 µM
same,TGI,SW-620 colon,3.62 µM
same,TGI,UACC-62 melanoma,23.3 µM
same,TGI,NCI-H23 lung,39.4 µM
same,TGI,SF-295 CNS,30 µM
same,TGI,SK-MEL-28 melanoma,33.3 µM
same,TGI,U251 CNS,37.4 µM
same,TGI,EKVX NSCLC,33.4 µM
same,TGI,MCF7 breast,21.6 µM
same,TGI,BT-549 breast,23.2 µM
same,TGI,MOLT-4 leukemia,5.19 µM
same,TGI,OVCAR-8 ovarian,15.2 µM
same,TGI,MDA-MB-231 breast,30.2 µM
same,TGI,IGROV1 ovarian,31.7 µM
same,TGI,HT29 colon,35 µM
same,TGI,HCC-2998 colon,35 µM
same,TGI,UO-31 renal,11.3 µM
same,TGI,HOP-92 NSCLC,5.41 µM
same,TGI,MALME-3M melanoma,4.73 µM
same,TGI,NCI-H522 lung,3.19 µM
same,TGI,SK-MEL-2 melanoma,29.4 µM
same,TGI,A549 NSCLC,43.4 µM
same,TGI,OVCAR-4 ovarian,7.71 µM
same,TGI,OVCAR-5 ovarian,36.6 µM
same,TGI,SK-MEL-5 melanoma,25.1 µM
same,TGI,HCT-15 colon,40.6 µM
same,TGI,NCI-H460 lung,38.4 µM
same,TGI,SF-539 CNS,28.5 µM
same,TGI,LOX IMVI melanoma,25.7 µM
